Test results: patent US20070292351A1, “Assay for efficacy of histone deacetylase inhibitors” (Methylgene, Inc., priority 2006, published 2007)
Like-named read-outs stand apart in the source and are kept apart here.

Key:
[1] = tested on: human H460 tumors in mice; test: Microarray gene expression analysis, implanted H460 tumors in vivo
Method: (§1) Biological analysis was performed using Biointerpreter software.
Human non-small cell lung carcinoma NSCLC-H460 cells (2 million) were injected subcutaneously in the animal flank and allowed to form solid tumors. Tumor fragments were passaged in animals for a minimum of three times before their use. Tumor fragments (about 30 mg) were implanted subcutaneously through a small surgical incision under general anesthesia to Balb/cA female nude mice (6-8 weeks old). Recipient animals were treated with either vehicle (0.1 N HCl) or MGCD0103 (2HBr salt, in 0.1 N HCl) 100 mg/kg orally. Tumors were harvested after one dose of either 6 hour or 24 hours post administration of vehicle or MGCD0103. Each experimental group contained 3 animals. Tumor tissues were deposited in RNAlater (Qiagen, Missisauga Ontario) for total RNA extraction.

[2] = tested on: implanted human NSCLC H460 tumors; test: Semi-quantitative PCR of p21 and MT3 in H460 tumors in nude mice; type: in vivo, nude mice (Balb/c); details: 100 mg/kg oral
Method: FIG. 5 Induction of MT3 and p21 in implanted human NSCLC H460 tumors in vivo in nude mice. Nude mice (Balb/c) bearing human H460 tumors were treated with 100 mg/kg MGCD0103 or 0.5% HEC (Vehicle) by oral administration. After 6 h or 24 h, three mice from each group were sacrificed, their tumors harvested and analyzed. Panel A: p21 and MT3 RNA levels quantified by conventional semi-quantitative PCR, normalized to β-actin. Panel B: H4Ac level detected by immunoblot analysis, normalized to total histones.
(§2) RNA was extracted from 8×10^6 cells using the Qiagen RNeasy Mini kit (cat#74106, Qiagen, Missisauga Ont.) following the manufacturer's instructions. RT reaction was performed using the Expand Reverse Transcriptase kit from Roche (Cat#1 785 834 Roche Applied Biosciences, Laval, Que) with 1 μg total RNA together with 1 μl oligo(dT) primer (cat#y01212, Invitrogen-Canada, Burlington, Ont). cDNA was synthesized using an Eppendorf Mastercycler gradient PCR apparatus (Brinkmann Instruments Canada LTD., Mississauga, Ontario), using a two cycle protocol. For the 1st cycle reaction mixture (0.5 μl H2O, 4 μl of 5× Buffer, 2 μl DTT, 2 ul of 10 mM dNTPs, 0.5 μl RNAsin (cat#N211B, Promega, Fisher Scientific, Whitby, Ont.) and […] of the Expand Reverse Transcriptase (Cat#1785834, Roche, Laval, Quebec)) was incubated at 65° C. for 10 minutes and then set on ice. A second cycle was performed at 42° C. for 1 hour. The resulting cDNA products were kept at 4° C. until used.
One ul of the resulting cDNA was used for every amplification reaction with 18.9 ul H2O, 1.25 ul of 10 mM dNTPs, 0.5 ul of each primer pair, 2.5 ul of 10× Buffer. The PCR reaction was carried out in an Eppendorf Mastercycler gradient. The sequences of the primers used for the amplification of selected biomarkers, as well as the details of the PCR reaction cycles are featured below. All buffers came from Expand Long Template PCR system (Roche, Laval, Quebec, Cat#11681842001). All primers were synthesized by Invitrogen (Invitrogen-Canada, Burlington, Ont.) […]

human colon HCT15 cells = test: Microarray gene expression analysis, HCT15 cells in vitro; type: cell-based; details: HCT-15, HCT15 in vitro
Method: Human cancer cell lines were from American Type Culture Collection (Manassas, Va.) and were all cultured following the vendor's instructions.
as §1

[3] = tested on: human colon cancer HCT15 cells; test: RT-PCR of MT3 transcription in HCT15 cells; type: cell-based
Method: FIG. 1. […] HCT15 cells were treated with HDAC inhibitors or indicated compounds for 16 hours before total RNAs are isolated. RNA levels of MT3 were measured by real-time RT-PCR and are subsequently normalized against β-actin.
Colon cancer HCT15 cells were exposed to 1 μM MGCD0103 for various amounts of time, and MT3 RNA levels were monitored by conventional semi-quantitative RT-PCR. Maximal induction is achieved between 8 h and 24 h of exposure and maintained through 72 h.
as §2
One ul of the resulting cDNA was used for every amplification reaction with 18.9 ul H2O, 1.25 ul of 10 mM dNTPs, 0.5 ul of each primer pair, 2.5 ul of 10× Buffer. The PCR reaction was carried out in an Eppendorf Mastercycler gradient. The sequences of the primers used for the amplification of selected biomarkers, as well as the details of the PCR reaction cycles are featured below. All buffers came from Expand Long Template PCR system (Roche, Laval, Quebec, Cat#11681842001). All primers were synthesized by Invitrogen (Invitrogen-Canada, Burlington, Ont.)
Analysis of transcripts was performed using STORM 860 (Amersham Biosciences, Baie d'Urfe, Qubec). Transcription of genes was normalized to transcription of actin, which was performed in the same RT-PCR reaction. The relative expression level of gense was normalized to baseline signals.
Quantitative PCR with SYBR Green I detection with Mastercycler® ep realplex (Eppendorf) was performed using LightCycler® 480 SYBR Green I Master (Roche Diagnostics). SYBR Green I assays were performed with 600 nM primers. All other reaction conditions were as described by the manufacturer. Amplification conditions were 5 minutes of initial denaturation at 95° C., followed by 40 cycles of each 15 seconds at 95° C., 15 seconds at 63.4° C., 20 seconds at 68° C., a melting curve from 60° C. to 95° C. was recorded. Quantification was performed using Pfaffl method, a relative quantification method in real-time PCR (Nucleic Acids Research 2001 29:2002-2007). Primers were synthesized by Invitrogen (Invitrogen-Canada, Burlington, Ont.).

Fold induction of CDKN1C transcription [1]: 3.1 fold
Fold induction of CXCL14 transcription [1]: 3.4 fold
Fold induction of IER3 transcription [1]: 3.2 fold
Fold induction of KRTHA2 transcription [1]: 2.6 fold
Fold induction of MT3 transcription [1]: 2.2 fold
Fold induction of PROM1 transcription [1]: 3.1 fold
Fold induction of SNIP transcription [1]: 2.8 fold
Fold induction of SOD2 transcription [1]: 2.8 fold
Fold induction of TNF transcription [1]: 2.8 fold
SMILES: Nc1ccccc1NC(=O)c1ccc(CNc2nccc(-c3cccnc3)n2)cc1 [MGCD0103]
persistence of gene induction (p21, MT3) in tumors [2]: at least 24 h
induction of MT3 RNA in tumors ([2]; 6 h or 24 h (FIG. 5A)): induction
induction of p21 RNA in tumors ([2]; 6 h or 24 h (FIG. 5A)): induction
fold induction at 1 µM (human colon HCT15 cells; probe A_23_P16523, read-out: Fold Induction of GDF15 transcription): 4.18
fold induction at 1 µM (human colon HCT15 cells; probe A_23_P41344, read-out: Fold Induction of EREG transcription): 4.62
fold induction at 1 µM (human colon HCT15 cells; probe A_23_P52336, read-out: Fold Induction of UNC5B transcription): 5.7
fold induction at 1 µM (human colon HCT15 cells; probe A_23_P94754, read-out: Fold Induction of TNFSF15 transcription): 4.11
fold induction at 1 µM (human colon HCT15 cells; probe A_23_P114947, read-out: Fold Induction of RGS2 transcription): 2.75
fold induction at 1 µM (human colon HCT15 cells; probe A_23_P142506, read-out: Fold Induction of GADD45B transcription): 3.1
fold induction at 1 µM (human colon HCT15 cells; probe A_23_P149019, read-out: Fold Induction of BAI2 transcription): 5.13
fold induction at 1 µM (human colon HCT15 cells; probe A_23_P151046, read-out: Fold Induction of KLRC1 transcription): 9.29
fold induction at 1 µM (human colon HCT15 cells; probe A_23_P259071, read-out: Fold Induction of AREG transcription): 9.39
fold induction at 1 µM (human colon HCT15 cells; probe A_23_P315273, read-out: Fold Induction of MT3 transcription): 7.65
fold induction at 1 µM (human colon HCT15 cells; probe A_24_P5856, read-out: Fold Induction of TNFSF9 transcription): 2.96
fold induction at 1 µM (human colon HCT15 cells; probe A_24_P217520, read-out: Fold Induction of EREG transcription): 4.14
Time-dependent induction of MT3 transcription ([3]; 1 uM (FIG. 3)): Time-dependent induction
time through which maximal MT3 induction is maintained ([3]; 1 uM (FIG. 3)): ≥ 72 h
Dose-dependent induction of MT3 transcription ([3]; 16 h, semi-quantitative RT-PCR (FIG. 2)): Dose-dependent induction
Induction of transcription of MT3 ([3]; 16 hours, real-time RT-PCR normalized against beta-actin (FIG. 1)): induced
